Laboratory results published in patent US8178119B2, “Method for the acaricidal finishing of textile materials” (Sanitized AG, priority 2004, dated 2012).

What was measured:
Type in all cases: in vivo
house dust mites [1] = assay: Effect against house dust mites, method not stated (one of the two methods); settings: for cuts in the number of mites: without zinc pyrithione, at concentrations normally used for antimicrobial finishing, reduction to zero mites not quite achieved; for growth in the population of mites by a factor: control factor 2.6
Text: On polyurethane foams based on polyester polyol, 2000 ppm of zinc pyrithione allowed a growth in the population of mites by a factor of 1.6, which is only insignificantly less than the corresponding control sample at a factor of 2.6. In the case of plasticized PVC, even 3000 ppm of zinc pyrithione allowed a growth in the population of mites by a factor of 1.4, while the PVC control sample returned a growth of again by a factor of 2.6. Both values are insufficient for the protection of the finished articles against colonization by mites, but they do form the basis for enhancement of the protection without the complete effect having to be supplied by the other active, permethrin for example.
(§1) Testing of the effect against house dust mites was carried out in the experiments according to one of the two methods described hereinbelow: • 1. The textile sample is cut to a size of 8×8 cm and placed on a glass plate of the same size. About 50 house dust mites in the adult stage, which were counted under the microscope, were placed in the center of the sample. Other stages were likewise present of course but are not counted. Some food (see method 2) is added. A 5 mm thick rubber plate with a 30 mm diameter hole in the middle is placed on the sample. The hole is covered from the top with a filter paper, and a metal plate with a hole in the middle is placed on the filter paper such that the hole is congruently positioned above the hole in the rubber plate. The sample plates thus prepared are fixed with clips and are then incubated for 6 or 8 weeks in an incubator at saturated humidity at 25° C. After the period of 6 or 8 weeks, the living adult mites were again counted under the microscope. In this method, the change in the number of mites compared with the initial value is calculated. The test is carried out in duplicate. • 2. The AFNOR NF G 39-011 test method, as carried out for example by TEC Laboratory, F-64600 Anglet, again utilizes 50 adult house dust mites, Dermatophagoides pteronyssinus, per test sample, which come from a stock culture from INRA Bordeaux and were bred for several years at 76% humidity at 25° C. in the complete absence of insecticides. The mites were fed on a mixture of wheat germ and brown brewer's yeast. The test is carried out at 17 to 23° C. The test duration is six weeks, and the mites are counted after they were driven out by application of heat. The test is carried out in quadruplicate. The reduction in the number of mites after six weeks compared with a non-finished control sample is determined.

house dust mites [2] = assay: Method 1: live adult house dust mites counted on the textile sample after 6 or 8 weeks, change versus initial value
Method: as §1, with “The” for “Testing of the effect against house dust mites was carried out in the experiments according to one of the two methods described hereinbelow: • 1. The”, “After the period of 6 or 8 weeks, the living adult mites were again counted under the microscope.” left out, “[…],” for “F-64600 Anglet,”

[3] = test system: Dermatophagoides pteronyssinus; assay: Method 2: AFNOR NF G 39-011 test, reduction in number of mites after six weeks versus non-finished control; settings: cotton/polyester mattress ticking
Method: as §1, with “The” for “Testing of the effect against house dust mites was carried out in the experiments according to one of the two methods described hereinbelow: • 1. The”, “After the period of 6 or 8 weeks, the living adult mites were again counted under the microscope.” left out, “[…],” for “F-64600 Anglet,”

| Molecule | cuts in the number of mites (house dust mites [1]) | reduction in the number of live mites, average (house dust mites [2]; Example 11: 1000 ppm on cotton, 6 weeks, control growth rate 273%) | reduction in the number of live mites (house dust mites [2]; Example 11: 1400 ppm on polyester furniture covering fabric, 6 weeks, control growth rate 273%) | live mites on samples after the test (house dust mites [2]; Example 3: 1.0% of aqueous dispersion comprising 15% zinc pyrithione padded with 3% NUVA TTC or 4% NUVA HPU or 4% NUVA HPC onto cotton, polyester or polyamide, cured 150° C. 90 seconds) | live mites on samples after the test (house dust mites [2]; Example 6: 0.4% of aqueous formulation comprising 48% zinc pyrithione padded with wetting agent and nonionized surfactant onto woven cotton, dried 180° C. 1 minute) | mite inhibition rate (MIR) compared with the non-finished control fabric, average ([3]; Example 5: 1.0% of formulation comprising 15% zinc pyrithione with 3% to 5% acrylate copolymers) | mites on samples after the test ([3]; Example 5: 1.2% of formulation comprising 15% zinc pyrithione with 3% to 5% acrylate copolymers) | mites on samples after the test ([3]; Example 5: 1.5% of formulation comprising 15% zinc pyrithione with 3% to 5% acrylate copolymers) | growth in the population of mites by a factor (house dust mites [1]; plasticized PVC, 3000 ppm of zinc pyrithione) | growth in the population of mites by a factor (house dust mites [1]; polyurethane foams based on polyester polyol, 2000 ppm of zinc pyrithione) |
| --- | --- | --- | --- | --- | --- | --- | --- | --- | --- | --- |
| CCCCCCCCn1sccc1=O [2-n-octylisothiazolin-3-one] | fairly good cuts in the number of mites |  |  |  |  |  |  |  |  |  |
| Oc1cc(Cl)ccc1Oc1ccc(Cl)cc1Cl [triclosan] | fairly good cuts in the number of mites | 57% | 38% |  |  |  |  |  |  |  |
| zinc pyrithione |  |  |  | no longer any live mites | no longer any live mites | 99.3% | completely free of mites | completely free of mites | 1.4 | 1.6 |
